In PubChem BioAssay (NCI):
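Here, GI50 denotes the concentration required for 50% inhibition of growth. TGI: concentration producing complete growth inhibition.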

Key:
Assay in all cases: NCI-60 cell line screen, 384-well format
[1] = system: IGROV1 ovarian
[2] = system: MCF7 breast
[3] = system: EKVX NSCLC
[4] = system: HCT-15 colon
[5] = system: NCI-H226 lung
[6] = system: SNB-19 CNS
[7] = system: PC-3 prostate
[8] = system: UACC-62 melanoma
[9] = system: MDA-MB-435 melanoma
[10] = system: NCI-H322M lung
[11] = system: MALME-3M melanoma
[12] = system: HOP-62 NSCLC
[13] = system: SK-MEL-5 melanoma
[14] = system: OVCAR-8 ovarian
[15] = system: OVCAR-4 ovarian
[16] = system: UO-31 renal
[17] = system: BT-549 breast
[18] = system: 786-0 renal
[19] = system: CAKI-1 renal
[20] = system: NCI-H23 lung
[21] = system: HL-60(TB) leukemia
[22] = system: TK-10 renal
[23] = system: SR leukemia
[24] = system: COLO 205 colon
[25] = system: MDA-MB-468 breast
[26] = system: OVCAR-3 ovarian
[27] = system: ACHN renal
[28] = system: SK-MEL-2 melanoma
[29] = system: RXF 393 renal
[30] = system: M14 melanoma
[31] = system: MDA-MB-231 breast
[32] = system: A549 NSCLC
[33] = system: KM12 colon
[34] = system: HT29 colon
[35] = system: U251 glioblastoma
[36] = system: A498 renal
[37] = system: HS 578T breast
[38] = system: SF-268 CNS
[39] = system: NCI-H522 lung
[40] = system: NCI-H460 NSCLC
[41] = system: SF-295 CNS
[42] = system: CCRF-CEM leukemia
[43] = system: HCT-116 colon
[44] = system: SF-539 CNS
[45] = system: T-47D breast
[46] = system: NCI/ADR-RES ovarian
[47] = system: UACC-257 melanoma

## C1=C/COCc2cc(ccc2OCCN2CCCC2)Nc2nccc(n2)-c2cccc(c2)COC/1
[1]
  GI50: 811 nM
  TGI: 2940 nM
[2]
  GI50: 521 nM
  TGI: 1780 nM
[3]
  GI50: 1560 nM
  TGI: 3370 nM
[4]
  GI50: 802 nM
  TGI: 2310 nM
[5]
  GI50: 1140 nM
  TGI: 2600 nM
[6]
  GI50: 2330 nM
  TGI: 6910 nM
[7]
  GI50: 1270 nM
  TGI: 3250 nM
[8]
  GI50: 685 nM
  TGI: 1920 nM
[9]
  GI50: 1320 nM
  TGI: 2730 nM
[10]
  GI50: 1010 nM
  TGI: 2470 nM
[11]
  GI50: 829 nM
  TGI: 2020 nM
[12]
  GI50: 1400 nM
  TGI: 3030 nM
[13]
  GI50: 1450 nM
  TGI: 2770 nM
[14]
  GI50: 1290 nM
  TGI: 2670 nM
[15]
  GI50: 1760 nM
  TGI: 3610 nM
[16]
  GI50: 1470 nM
  TGI: 3190 nM
[17]
  GI50: 1790 nM
  TGI: 3200 nM
[18]
  GI50: 1260 nM
  TGI: 2620 nM
[19]
  GI50: 428 nM
  TGI: 1710 nM
[20]
  GI50: 945 nM
  TGI: 2250 nM
[21]
  GI50: 251 nM
  TGI: 684 nM
[22]
  GI50: 1330 nM
  TGI: 3560 nM
[23]
  GI50: 152 nM
  TGI: 303 nM
[24]
  GI50: 1090 nM
  TGI: 2470 nM
[25]
  GI50: 1660 nM
  TGI: 3030 nM
[26]
  GI50: 988 nM
  TGI: 2270 nM
[27]
  GI50: 870 nM
  TGI: 4430 nM
[28]
  GI50: 625 nM
  TGI: 1790 nM
[29]
  GI50: 1210 nM
  TGI: 2470 nM
[30]
  GI50: 1160 nM
  TGI: 2390 nM
[31]
  GI50: 1190 nM
  TGI: 2920 nM
[32]
  GI50: 1460 nM
  TGI: 3490 nM
[33]
  GI50: 321 nM
  TGI: 1330 nM
[34]
  GI50: 1340 nM
  TGI: 2670 nM
[35]
  GI50: 1540 nM
  TGI: 3290 nM
[36]
  GI50: 829 nM
  TGI: 2850 nM
[37]
  GI50: 1360 nM
  TGI: 2670 nM
[38]
  GI50: 865 nM
  TGI: 2100 nM
[39]
  GI50: 1450 nM
  TGI: 2780 nM
[40]
  GI50: 923 nM
  TGI: 2220 nM
[41]
  GI50: 1810 nM
  TGI: 3310 nM
[42]
  GI50: 705 nM
  TGI: 1790 nM
[43]
  GI50: 692 nM
  TGI: 2360 nM
[44]
  GI50: 1700 nM
  TGI: 3080 nM
[45]
  GI50: 1270 nM
  TGI: 2670 nM
[46]
  GI50: 1910 nM
  TGI: 3990 nM
[47]
  GI50: 649 nM
  TGI: 1410 nM
